“Also recorded” adds a separate entry of the source.
Test system: iBMECs
Test: blood-to-brain permeability of fluorescent molecules across iBMEC monolayers on transwells, monoculture or brain region-specific NVUs
Details: iBMECs alone or co-cultured over primary rat neural cultures (cortex, striatum, hippocampus, cerebellum, spinal cord); one-way ANOVA, Tukey; result in words
Method: In order to obtain region-specific primary neural cultures, E18 rat embryos were extracted from a pregnant female. Embryos were dissected and several regions of the CNS were separated including cortex, striatum, hippocampus, cerebellum and spinal cord. The regions were enzymatically dissociated into single cells before seeded pre-coated MEA plates and petri dishes, in which they were cultured in Neurobasal medium (Sigma) for two weeks. In order to validate the various primary cell cultures, the cells were stained for the neuronal marker βIII-tubulin and the glial marker GFAP (FIG. 2).
iPSCs were differentiated into iBMECs as previously described. On Day 8 of differentiation, cells were enzymatically dissociated into single cell suspensions and seeded on precoated transwell inserts. 24 hours post seeding, iBMEC inserts were placed on top of primary neural cultures derived from the different CNS regions (FIG. 3) where they were cultured for three additional days.
Fluorescence was measured using a plate reader and calculated into concentrations using a calibration curve with known concentrations. Next, the inventors plotted the chart and extracted the slope for each transwell. Slopes from empty transwells were subtracted from the obtained value and the results were used to calculate the permeability, expressed as 10-5 cm/min.

O=[N+]([O-])c1ccc(N[C@H]2C(O)O[C@H](CO)[C@@H](O)[C@@H]2O)c2nonc12 (stereo partly drawn) [2-NDBG, 2-[N-(7-nitrobenz-2-oxa-1,3-diazol-4-yl)amino]-2-deoxy-D-glucose]
differences in permeability between iBMEC monoculture and NVUs of different brain regions: not different between the NVUs

O=C([O-])c1ccccc1-c1c2ccc(=O)cc-2oc2cc([O-])ccc12.[Na+].[Na+] [sodium fluorescein]
differences in permeability between iBMEC monoculture and NVUs of different brain regions: significantly more permeable in the monoculture compared to the NVUs of the cortex, cerebellum, striatum and hippocampus; also recorded: significance differences in permeability were also observed between spinal cord and other NVUs

From patent US20230056360A1, “BLOOD-BRAIN-BARRIER SYSTEMS” (priority 2020, published 2023)
